Measured values: US8785430B2, “Compound that can inhibit UBC13-UEV interactions, pharmaceutical compositions and therapeutic uses” (Consejo Superior de Investigaciones Cientificas, priority 2006, dated 2014)

Target: T1, binding of UEV1 to GST-UBC13 (Homo sapiens, UniProt P61088)
T1 construct: made in house; host or cells: Escherichia coli BL21
T1 sequence (P61088 1-152): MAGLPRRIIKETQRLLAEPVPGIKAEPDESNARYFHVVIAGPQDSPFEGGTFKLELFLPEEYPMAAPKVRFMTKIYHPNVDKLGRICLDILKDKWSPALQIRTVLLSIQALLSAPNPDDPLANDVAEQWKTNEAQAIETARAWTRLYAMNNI
Experiment: Purified recombinant protein interaction assay, UEV1 binding to GST-UBC13 on glutathione-Sepharose
Conditions: for UEV1 in the fraction which is eluted and not bound to GST-UBC13: 100 μM; for inhibition of the interaction of UEV1 with UBC13 at lower concentrations: much lower concentrations, of up to 10 nM
Protocol: To determine the activity of these compounds in acellular assays, protein-protein interaction experiments were performed with recombinant proteins produced in Escherichia coli. To express UBC13 and UEV1, bacterial cells of the E. coli strain BL21 were transformed with plasmids pGEX-4T1-UBC13 or pGEX-4T3-UEV1, transformed colonies being selected by means of growth in plates with ampicillin (100 μg/mL). Individual colonies were transferred to 3 L of LB medium without antibiotics, being grown with stirring at 37° C. until the culture reached the exponential phase (OD600˜0.6), at which time the expression of the recombinant proteins was induced by means of adding isopropyl […] (IPTG, Sigma I-6758) at a concentration of 1 mM for 5 hours to the culture. The cultures were transferred to tubes, centrifuged and the cell pellets were resuspended in twice their volume of phosphate buffered saline (PBS) at pH 7.4 and were broken in a Cell Disruptor instrument (Constant Systems). The cell lysates were filtered through cellulose acetate filters with […] (Millipore SLHA033SS) and were applied to GSTrap FF columns (Amersham Biosciences 17-5131-01). In the case of UEV1, the protein bound specifically to the column was subjected to enzymatic digestion on the same column with 50 units of thrombin (Amersham Biosciences 27-0846-01) at 25° C. overnight. A HiTrapBenzamidine FF column (Amersham Biosciences 27-0846-01) was coupled to the previous column, such that the GST unit was trapped in the first column, and the thrombin in the second column. Then the UEV1 protein was eluted, without the GST portion, followed by a subsequent step of purification by means of gel filtration chromatography with a Superdex 75 column. The GST-UBC13 recombinant protein was expressed as indicated above, being purified by means of affinity chromatography in GSTrap FF columns, followed by filtration chromatography in Superdex 75. The fractions corresponding to the purified proteins were concentrated by means of centrifugation in Centricon YM-10 columns (Millipore 4205), being stored at 4° C. until their use.
To determine the effects of compounds Ia and Ib on the interaction of UBC13 with UEV1, 2 μL of the GST-UBC13 chimeric recombinant protein, at a concentration of […] in a 50 mM Hepes buffer, 100 mM NaCl, 1 mM EDTA, 0.5 mM DTT at pH 7.6 were pre-incubated for 30 minutes at room temperature with the compounds Varubin, Ib or the cyclic control compound VIII-N6-2-1C at final concentrations of 10 nM, 100 nM, 1 μM, 10 μM or 100 μM. […]

Compound | UEV1 in the fraction which is eluted and not bound to GST-UBC13 | inhibition of the interaction of UEV1 with UBC13 at lower concentrations
NC(=O)CN(CCc1ccccn1)C(=O)C1CC(=O)N(CCc2ccc(F)cc2)CC(=O)N1CCc1ccc(F)cc1 (stereo not shown) [Ia, N-aminocarbamoylmethyl-N-(2′-(2″pyridyl)ethyl)-1,4-bis[2′-(4″-fluorophenyl)ethyl]-3,7-dioxo-[1,4]diazepane-5-carboxamide] | up to 60% | efficient inhibition
NC(=O)CN(CCc1ccccn1)C(=O)CC1C(=O)N(CCc2ccc(F)cc2)CC(=O)N1CCc1ccc(F)cc1 (stereo not shown) [Ib, 1,4-bis[2′-(4″-fluorophenyl)ethyl]-2-[N-aminocarbonylmethyl-N-(2′-(2″-pyridyl)ethyl)-carbonylmethyl]piperazine-3,6-dione] | ≤ 40% | efficient inhibition
